The subject of data set [1] is whole sheep blood. Briefly: Tilt Tube Clot Test. The data set is classed as biochemical. To be noted: Example 3. The procedure:
Beakers containing the mixtures were placed on a magnetic stirrer with a stirring rod placed therein. The stir plate was set to 300 RPM. Once the mixture appeared uniform, 130 μL of the mixture was pipetted into each of the appropriately labeled tubes. 20 samples per concentration were used. The samples were tested in a Tilt Tube Clot Test method described below. A water bath was prepared to 37±1° C., and a test tube holder was placed therein. One mL of whole sheep blood at 37° C. was pipetted into each test tube. 150 μL of CaCl2 at 37° C. was then pipetted into a tube and a timer was then started (time “0”). Tubes were capped and gently shaken twice to ensure that the CaCl2 was completely mixed with the blood, and then placed in the water bath. Tubes were tilted by 90° at 15 second intervals, beginning when the timer reads 45 seconds. The time to clot was determined by visual inspection and the clot time was recorded. A clot is defined as a solid mass that may or may not adhere to bottom of test tube. The average clot time for control blood and hemostatic agents was then calculated. […] Samples from Tests 11-13 and Test 10 from Example 2 were then further separated into 0.5″ by 0.5″ squares and added to test tubes. A Tilt Tube Clot Test, as described in Example 1, was performed.

Data set [2] can be described thus: Appearance of coated gauze after drying at 80° C. for 24 hours. It counts as physicochemical. To be noted: exposure to 80° C. for 24 hours. The procedure: To coat the gauze, 20 mL of the coating mixture was poured into a flatbottom glass dish and then the gauze dipped into the mixture. The gauze was then lifted and allowed to drip. The coated gauze was placed on the wire rack and dried at 80° C. for 24 hrs. After drying was complete, samples were taken from the oven and remeasured for weight and moisture.
After coating, there were noticeable white clumps on the gauze.

Data set [3] can be described thus: Observation of salt dissolution in DI water during coating. It counts as physicochemical. To be noted: Example 3 coating mixture, 0.39 g in 100 mL DI water.

Structures can show the parent of a compound that is named as a salt.

As for `CC(=O)O.CC(=O)O.NC(=N\CCCCCC/N=C(N)/N=C(\N)Nc1ccc(Cl)cc1)/N=C(\N)Nc1ccc(Cl)cc1` [CHA, Chlorhexidine diacetate], the clot time in data set [1] (tested concentrations for CHA (300 and 50 μg/cm^2 targeted)) was ≥ 150 s. For the same molecule, in data set [2], the appearance after drying entry is reported as “discolored, turning a yellow/orange”.
Regarding `[H]/N=C(\N/C(=N/[H])NCCCCCCNC(=N)NC(=N)Nc1ccc(Cl)cc1)Nc1ccc(Cl)cc1` [CHD, Chlorhexidine dihydrochloride], the clot time entry in data set [1] (estimated 300 μg/cm^2, at some individual data points) is “less than 150 seconds”. Further, the “dissolution in DI water” value in data set [3] is “did not dissolve”.

(Values after patent publication US20250352395A1, “ANTIMICROBIAL HEMOSTATIC DEVICES AND METHODS OF USE AND MAKING” (TELEFLEX LIFE SCIENCES II LLC, priority 2024, published 2025).)
